Experimental data from ChEMBL document CHEMBL3580572, “Synthesis of mixed opioid affinity cyclic endomorphin-2 analogues with fluorinated phenylalanines” (ACS Med Chem Lett, 2015).
Active and inactive are the calls of the source. The calls are words filed in the database; no cut-off is given here. Where a SMILES comes first, the peptide text is derived from it. Bridges are numbered along the chain shown (N, C = ends). [ ]: non-standard residue; d: D form. Phe(4-CF3) = N[C@@H](Cc1ccc(C(F)(F)F)cc1)C(=O)O; Dmt = Cc1cc(O)cc(C)c1C[C@H](N)C(=O)O

Key:
Mu-type opioid receptor [1] = target: T1, Mu-type opioid receptor (Homo sapiens, UniProt P35372); experiment: Agonist activity at human recombinant mu opioid receptor expressed in CHO cells co-expressing C-terminally modified GGalphaqi5 assessed as stimulation of calcium release by Fluo-4 AM dye-based fluorescence assay; type: functional, cell-based
[2] = target: T2, Delta-type opioid receptor (Homo sapiens, UniProt P41143); experiment: Agonist activity at human recombinant delta opioid receptor expressed in CHO cells co-expressing Galphaq66Di5 assessed as stimulation of calcium release by Fluo-4 AM dye-based fluorescence assay; type: functional, cell-based
[3] = target: T3, Kappa-type opioid receptor (Homo sapiens, UniProt P41145); experiment: Agonist activity at human recombinant kappa opioid receptor expressed in CHO cells co-expressing C-terminally modified Galphaqi5 assessed as stimulation of calcium release by Fluo-4 AM dye-based fluorescence assay; type: functional, cell-based
[4] = target: Kappa-type opioid receptor (Cavia porcellus, UniProt P41144); experiment: Displacement of [3H]nor-BNI from kappa opioid receptor in guinea pig brain membranes after 120 mins by scintillation counting analysis; type: cell membranes, Membrane
[5] = target: T2, Delta-type opioid receptor; experiment: Intrinsic activity at human recombinant delta opioid receptor expressed in CHO cells co-expressing Galphaq66Di5 assessed as efficacy ratio by measuring stimulation of calcium release by Fluo-4 AM dye-based fluorescence assay relative to DPDPE; type: functional, cell-based
[6] = Metabolic stability in rat brain homogenates assessed as enzymatic degradation by measuring compound remaining at 0.5 mM after 90 mins by RP-HPLC analysis; type: ADME, tissue-based; details: brain homogenate, read-out: Stability
[7] = target: Delta-type opioid receptor (Rattus norvegicus, UniProt P33533); experiment: Displacement of [3H][Ile5,6]deltorphin-2 from delta opioid receptor in Wistar rat brain membranes after 120 mins by scintillation counting analysis; type: cell membranes, Membrane
Mu-type opioid receptor [8] = target: Mu-type opioid receptor (Rattus norvegicus, UniProt P33535); experiment: Displacement of [3H]DAMGO from mu opioid receptor in Wistar rat brain membranes after 120 mins by scintillation counting analysis; type: cell membranes, Membrane
[9] = target: T3, Kappa-type opioid receptor; experiment: Intrinsic activity at human recombinant kappa opioid receptor expressed in CHO cells co-expressing C-terminally modified Galphaqi5 assessed as efficacy ratio by measuring stimulation of calcium release by Fluo-4 AM dye-based fluorescence assay relative to dynorphin-A; type: functional, cell-based
[10] = target: T2, Delta-type opioid receptor; experiment: Agonist activity at human recombinant delta opioid receptor expressed in CHO cells co-expressing Galphaq66Di5 assessed as stimulation of calcium release up to 1 uM by Fluo-4 AM dye-based fluorescence assay; type: functional, cell-based
Mus musculus [11] = experiment: Antinociceptive activity in CD1 mouse assessed as inhibition of jumping behavior at 100 ng, icv after 10 mins by hot plate assay in presence of mu opioid receptor antagonist beta-FNA; type: functional, organism-based
Mus musculus [12] = experiment: Antinociceptive activity in CD1 mouse assessed as inhibition of jumping behavior at 100 ng, icv after 10 mins by hot plate assay in presence of kappa opioid receptor antagonist nor-BNI; type: functional, organism-based
Mus musculus [13] = experiment: Antinociceptive activity in icv dosed CD1 mouse assessed as inhibition of jumping behavior after 10 mins by hot plate assay; type: functional, organism-based
Mus musculus [14] = experiment: Antinociceptive activity in CD1 mouse assessed as maximal possible effect by measuring inhibition of jumping behavior at 10 mg/kg, ip after 15 mins by hot plate assay relative to control; type: functional
Mu-type opioid receptor [15] = target: T1, Mu-type opioid receptor; experiment: Agonist activity at human recombinant mu opioid receptor expressed in CHO cells co-expressing C-terminally modified Galphaqi5 assessed as stimulation of calcium release up to 1 uM by Fluo-4 AM dye-based fluorescence assay; type: functional, cell-based
Mus musculus [16] = experiment: Antinociceptive activity in CD1 mouse assessed as inhibition of jumping behavior at 0.3 to 10 mg/kg, ip after 15 mins by hot plate assay; type: functional, organism-based

Delta-type opioid receptor (Rattus norvegicus, UniProt P33533), sequence (P33533 whole entry): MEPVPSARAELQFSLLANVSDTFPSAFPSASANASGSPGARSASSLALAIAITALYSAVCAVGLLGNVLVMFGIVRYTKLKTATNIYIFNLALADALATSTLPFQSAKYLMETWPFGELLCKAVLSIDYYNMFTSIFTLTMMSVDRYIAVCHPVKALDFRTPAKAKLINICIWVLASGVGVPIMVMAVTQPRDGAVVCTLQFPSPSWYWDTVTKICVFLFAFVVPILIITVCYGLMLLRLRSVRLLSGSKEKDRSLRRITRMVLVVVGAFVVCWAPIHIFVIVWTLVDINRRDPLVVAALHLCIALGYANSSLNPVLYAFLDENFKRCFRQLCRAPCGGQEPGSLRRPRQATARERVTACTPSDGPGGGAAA
Kappa-type opioid receptor (Cavia porcellus, UniProt P41144), sequence (P41144 whole entry): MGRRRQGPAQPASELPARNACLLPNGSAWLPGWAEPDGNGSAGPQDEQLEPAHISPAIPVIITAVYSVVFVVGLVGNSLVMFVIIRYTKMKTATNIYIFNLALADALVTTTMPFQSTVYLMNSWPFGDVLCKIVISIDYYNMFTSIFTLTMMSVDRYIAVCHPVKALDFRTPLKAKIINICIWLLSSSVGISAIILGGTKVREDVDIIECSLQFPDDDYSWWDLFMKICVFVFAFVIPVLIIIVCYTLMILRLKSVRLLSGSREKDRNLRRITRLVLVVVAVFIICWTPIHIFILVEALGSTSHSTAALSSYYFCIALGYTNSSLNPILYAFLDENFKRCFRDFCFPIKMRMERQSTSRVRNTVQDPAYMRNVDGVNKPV
T1 sequence (P35372 whole entry): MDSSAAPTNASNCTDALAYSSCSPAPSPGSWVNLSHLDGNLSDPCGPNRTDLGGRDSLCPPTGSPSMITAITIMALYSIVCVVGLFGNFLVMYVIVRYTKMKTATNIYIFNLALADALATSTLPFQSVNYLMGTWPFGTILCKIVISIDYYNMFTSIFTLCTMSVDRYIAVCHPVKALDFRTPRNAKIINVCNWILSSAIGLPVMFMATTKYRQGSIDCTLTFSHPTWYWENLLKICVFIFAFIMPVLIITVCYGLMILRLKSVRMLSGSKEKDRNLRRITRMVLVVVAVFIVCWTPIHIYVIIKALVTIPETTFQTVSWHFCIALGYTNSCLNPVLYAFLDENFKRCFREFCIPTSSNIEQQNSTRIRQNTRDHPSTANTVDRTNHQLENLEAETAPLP
T3 sequence (P41145 whole entry): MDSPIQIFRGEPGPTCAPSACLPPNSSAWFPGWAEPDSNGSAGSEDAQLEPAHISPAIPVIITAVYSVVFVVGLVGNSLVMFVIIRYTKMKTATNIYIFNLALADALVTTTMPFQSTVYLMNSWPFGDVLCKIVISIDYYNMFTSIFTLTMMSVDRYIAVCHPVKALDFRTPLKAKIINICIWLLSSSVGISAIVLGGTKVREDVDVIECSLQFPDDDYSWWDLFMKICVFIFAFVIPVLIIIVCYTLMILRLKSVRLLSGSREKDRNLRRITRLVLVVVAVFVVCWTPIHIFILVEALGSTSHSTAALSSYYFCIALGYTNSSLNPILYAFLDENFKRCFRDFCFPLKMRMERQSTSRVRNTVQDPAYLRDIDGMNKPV
Mu-type opioid receptor (Rattus norvegicus, UniProt P33535), sequence (P33535 whole entry): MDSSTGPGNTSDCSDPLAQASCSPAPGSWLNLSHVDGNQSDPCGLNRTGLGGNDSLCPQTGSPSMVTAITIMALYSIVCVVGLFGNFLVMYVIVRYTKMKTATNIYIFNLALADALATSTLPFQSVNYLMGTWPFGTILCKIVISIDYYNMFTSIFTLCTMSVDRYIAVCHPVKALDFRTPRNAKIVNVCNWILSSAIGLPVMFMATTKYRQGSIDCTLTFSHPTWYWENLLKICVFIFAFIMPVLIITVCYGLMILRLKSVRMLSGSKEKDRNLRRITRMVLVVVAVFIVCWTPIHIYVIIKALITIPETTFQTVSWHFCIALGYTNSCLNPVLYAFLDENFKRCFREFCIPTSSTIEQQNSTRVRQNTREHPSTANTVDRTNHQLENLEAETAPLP
T2 sequence (P41143 whole entry): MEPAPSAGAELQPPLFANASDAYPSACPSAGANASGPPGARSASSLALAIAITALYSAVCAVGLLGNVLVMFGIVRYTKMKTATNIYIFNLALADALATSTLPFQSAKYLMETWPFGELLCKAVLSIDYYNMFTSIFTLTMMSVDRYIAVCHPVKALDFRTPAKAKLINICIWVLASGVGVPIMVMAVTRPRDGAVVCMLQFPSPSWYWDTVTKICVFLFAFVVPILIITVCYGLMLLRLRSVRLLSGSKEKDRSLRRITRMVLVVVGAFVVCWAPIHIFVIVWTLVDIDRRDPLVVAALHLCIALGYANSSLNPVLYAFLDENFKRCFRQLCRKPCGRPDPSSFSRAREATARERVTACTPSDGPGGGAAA

Row | SMILES | EC50 (Mu-type opioid receptor [1]) | EC50 [2] | EC50 [3] | IC50 [4] | Ratio [5] | remaining at 1.5 h, 500 µM [6] | IC50 [7] | IC50 (Mu-type opioid receptor [8]) | Ratio [9] | Activity [10] | inhibition (Mus musculus [11]) | inhibition (Mus musculus [12]) | inhibition (Mus musculus [13]) | MPE (Mus musculus [14]) | Activity (Mu-type opioid receptor [15]) | inhibition (Mus musculus [16])
1 | NC(=O)[C@@H]1CC(=O)NCCCC[C@@H](NC(=O)[C@@H](N)Cc2ccc(O)cc2)C(=O)N[C@@H](Cc2ccccc2)C(=O)N[C@@H](Cc2ccc(F)cc2)C(=O)N1 | 3.24 nM | 51.3 nM | 1.05 nM | 0.6 nM | 0.2 | 93% | 286 nM | 0.98 nM | 0.88 | – | – | – | – | – | – | –
2 | Cc1cc(O)cc(C)c1C[C@H](N)C(=O)N[C@@H]1CCCCNC(=O)C[C@@H](C(N)=O)NC(=O)[C@H](Cc2ccccc2)NC(=O)[C@H](Cc2ccc(F)cc2)NC1=O | 2.51 nM | – | 4.79 nM | 2.4 nM | – | 96% | 280 nM | 0.55 nM | 0.79 | inactive | – | – | – | – | – | –
3 | Cc1cc(O)cc(C)c1C[C@H](N)C(=O)N[C@@H]1CCCCNC(=O)C[C@@H](C(N)=O)NC(=O)[C@H](Cc2ccc(F)cc2F)NC(=O)[C@H](Cc2ccccc2)NC1=O | 1.66 nM | 8.71 nM | 1.35 nM | 0.3 nM | 0.37 | 97% | 11.2 nM | 0.49 nM | 0.82 | – | inactive | Active | Dose-dependent effect | 84% | – | –
4 | Cc1cc(O)cc(C)c1C[C@H](N)C(=O)N[C@@H]1CCCCNC(=O)C[C@@H](C(N)=O)NC(=O)[C@H](Cc2ccccc2)NC(=O)[C@H](Cc2ccc(F)cc2F)NC1=O | 5.13 nM | – | 2.82 nM | 0.6 nM | – | 94% | 342 nM | 0.54 nM | 0.65 | – | – | – | – | – | – | –
5 | NC(=O)[C@@H]1CC(=O)NCCCC[C@@H](NC(=O)[C@@H](N)Cc2ccc(O)cc2)C(=O)N[C@@H](Cc2ccccc2)C(=O)N[C@@H](Cc2ccc(C(F)(F)F)cc2)C(=O)N1 | 5.25 nM | 162 nM | 11.7 nM | 1.5 nM | 0.27 | 97% | 429 nM | 1.6 nM | 0.78 | – | – | – | – | – | – | –
6 | NC(=O)[C@H](Cc1ccccc1)NC(=O)[C@H](Cc1ccccc1)NC(=O)[C@@H]1CCCN1C(=O)[C@@H](N)Cc1ccc(O)cc1 [ENDOMORPHIN 2] | – | – | – | – | – | 0.61% | – | – | – | – | – | – | – | – | – | –
7 | NC(=O)[C@@H]1CC(=O)NCCCC[C@@H](NC(=O)[C@@H](N)Cc2ccc(O)cc2)C(=O)N[C@@H](Cc2ccc(F)cc2)C(=O)N[C@@H](Cc2ccccc2)C(=O)N1 | 2.57 nM | 457 nM | 10 nM | 2.43 nM | 0.14 | 96% | 348 nM | 0.72 nM | 0.89 | – | – | – | – | – | – | –
8 | Cc1cc(O)cc(C)c1C[C@H](N)C(=O)N[C@@H]1CCCCNC(=O)C[C@@H](C(N)=O)NC(=O)[C@H](Cc2ccccc2)NC(=O)[C@H](Cc2ccc(C(F)(F)F)cc2)NC1=O | – | 9.33 nM | – | 6.4 nM | 0.28 | 96% | > 1000 nM | > 1000 nM | – | – | – | – | – | – | inactive | –
9 | NC(=O)[C@@H]1CC(=O)NCCCC[C@@H](NC(=O)[C@@H](N)Cc2ccc(O)cc2)C(=O)N[C@@H](Cc2ccc(F)cc2F)C(=O)N[C@@H](Cc2ccccc2)C(=O)N1 | 4.07 nM | – | 7.59 nM | 3.26 nM | – | 93% | > 1000 nM | 0.69 nM | 0.78 | inactive | – | – | – | – | – | –
10 | NC(=O)[C@@H]1CC(=O)NCCCC[C@@H](NC(=O)[C@@H](N)Cc2ccc(O)cc2)C(=O)N[C@@H](Cc2ccccc2)C(=O)N[C@@H](Cc2ccc(F)cc2F)C(=O)N1 | 6.31 nM | 126 nM | 4.9 nM | 0.9 nM | 0.5 | 94% | 110 nM | 0.42 nM | 0.78 | – | – | – | – | – | – | –
11 | Cc1cc(O)cc(C)c1C[C@H](N)C(=O)N[C@@H]1CCCCNC(=O)C[C@@H](C(N)=O)NC(=O)[C@H](Cc2ccc(C(F)(F)F)cc2)NC(=O)[C@H](Cc2ccccc2)NC1=O (H-[Dmt][dK]F[Phe(4-CF3)]D-NH2; lactam 2-5) | 6.76 nM | – | 3.63 nM | 1.15 nM | – | 93% | > 1000 nM | 0.92 nM | 0.6 | inactive | – | – | – | – | – | –
12 | NC(=O)[C@@H]1CC(=O)NCCCC[C@@H](NC(=O)[C@@H](N)Cc2ccc(O)cc2)C(=O)N[C@@H](Cc2ccc(C(F)(F)F)cc2)C(=O)N[C@@H](Cc2ccccc2)C(=O)N1 | – | – | 72.4 nM | 24.5 nM | – | 97% | > 1000 nM | > 1000 nM | 0.7 | inactive | – | – | – | – | inactive | –
13 | Cc1cc(O)cc(C)c1C[C@H](N)C(=O)N[C@@H]1CCCCNC(=O)C[C@@H](C(N)=O)NC(=O)[C@H](Cc2ccc(F)cc2)NC(=O)[C@H](Cc2ccccc2)NC1=O | 2.75 nM | 33.9 nM | 2.24 nM | 0.55 nM | 0.21 | 93% | 168 nM | 0.61 nM | 0.71 | – | inactive | Active | Dose-dependent effect | – | – | Active
